# Experiments:
# [1] = biological target: T1, Phosphatidylinositol 4,5-bisphosphate 3-kinase catalytic subunit alpha isoform (Homo sapiens, UniProt P42336); experiment: Inhibition of PI3Kalpha (unknown origin) by TR-FRET assay
# [2] = biological target: Phosphatidylinositol 4,5-bisphosphate 3-kinase catalytic subunit gamma isoform (Homo sapiens, UniProt P48736); experiment: Inhibition of PI3Kgamma (unknown origin) by TR-FRET assay
# [3] = biological target: T2, Phosphatidylinositol 4,5-bisphosphate 3-kinase catalytic subunit delta isoform (Homo sapiens, UniProt O00329); experiment: Inhibition of PI3Kdelta (unknown origin) by TR-FRET assay
# T2 sequence (O00329 whole entry): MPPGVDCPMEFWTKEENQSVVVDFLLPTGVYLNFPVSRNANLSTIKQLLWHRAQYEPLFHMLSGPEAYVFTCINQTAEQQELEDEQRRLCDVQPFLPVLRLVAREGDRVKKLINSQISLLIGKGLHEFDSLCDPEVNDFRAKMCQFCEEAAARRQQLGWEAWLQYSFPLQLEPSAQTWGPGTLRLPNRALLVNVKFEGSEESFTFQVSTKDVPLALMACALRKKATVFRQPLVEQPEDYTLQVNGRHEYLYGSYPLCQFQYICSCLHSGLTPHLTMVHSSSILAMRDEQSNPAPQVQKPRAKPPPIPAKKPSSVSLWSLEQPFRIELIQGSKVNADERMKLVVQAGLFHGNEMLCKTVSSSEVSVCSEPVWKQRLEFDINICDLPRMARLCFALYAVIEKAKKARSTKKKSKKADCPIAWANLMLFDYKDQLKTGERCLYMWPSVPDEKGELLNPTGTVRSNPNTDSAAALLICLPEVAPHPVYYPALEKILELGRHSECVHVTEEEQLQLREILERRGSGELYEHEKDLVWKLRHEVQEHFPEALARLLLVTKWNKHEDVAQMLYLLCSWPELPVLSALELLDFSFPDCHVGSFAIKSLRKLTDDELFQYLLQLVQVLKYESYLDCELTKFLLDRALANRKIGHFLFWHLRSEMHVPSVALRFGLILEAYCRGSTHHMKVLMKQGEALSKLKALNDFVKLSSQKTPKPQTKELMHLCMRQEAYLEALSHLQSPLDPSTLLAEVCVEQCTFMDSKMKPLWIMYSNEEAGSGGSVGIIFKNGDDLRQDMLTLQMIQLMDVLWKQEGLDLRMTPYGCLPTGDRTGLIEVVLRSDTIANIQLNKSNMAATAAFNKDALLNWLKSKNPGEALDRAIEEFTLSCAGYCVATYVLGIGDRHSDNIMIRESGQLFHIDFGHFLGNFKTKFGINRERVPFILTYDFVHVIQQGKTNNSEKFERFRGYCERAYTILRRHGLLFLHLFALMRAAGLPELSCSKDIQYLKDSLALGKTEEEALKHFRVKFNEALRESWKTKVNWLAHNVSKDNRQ
# [4] = biological target: Phosphatidylinositol 4,5-bisphosphate 3-kinase catalytic subunit beta isoform (Homo sapiens, UniProt P42338); experiment: Inhibition of PI3Kbeta (unknown origin) by TR-FRET assay
# [5] = biological target: Serine/threonine-protein kinase mTOR (Homo sapiens, UniProt P42345); experiment: Inhibition of recombinant mTOR (unknown origin) using GFP-4E-BP1 as substrate preincubated for 15 mins followed by substrate addition measured after 1 hr by TR-FRET assay
# [6] = biological target: PI3-kinase p110-alpha/p85-alpha (Homo sapiens, UniProt P42336); experiment: Inhibition of PI3K p110alpha/p85alpha (unknown origin) using PIP2 as substrate preincubated for 15 mins followed by substrate addition measured after 1 hr in presence of ATP by TR-FRET assay; format: protein-complex assay
# [7] = biological target: T1, Phosphatidylinositol 4,5-bisphosphate 3-kinase catalytic subunit alpha isoform; experiment: Inhibition of PI3Kalpha (unknown origin)
# T1 sequence (P42336 whole entry, canonical isoform): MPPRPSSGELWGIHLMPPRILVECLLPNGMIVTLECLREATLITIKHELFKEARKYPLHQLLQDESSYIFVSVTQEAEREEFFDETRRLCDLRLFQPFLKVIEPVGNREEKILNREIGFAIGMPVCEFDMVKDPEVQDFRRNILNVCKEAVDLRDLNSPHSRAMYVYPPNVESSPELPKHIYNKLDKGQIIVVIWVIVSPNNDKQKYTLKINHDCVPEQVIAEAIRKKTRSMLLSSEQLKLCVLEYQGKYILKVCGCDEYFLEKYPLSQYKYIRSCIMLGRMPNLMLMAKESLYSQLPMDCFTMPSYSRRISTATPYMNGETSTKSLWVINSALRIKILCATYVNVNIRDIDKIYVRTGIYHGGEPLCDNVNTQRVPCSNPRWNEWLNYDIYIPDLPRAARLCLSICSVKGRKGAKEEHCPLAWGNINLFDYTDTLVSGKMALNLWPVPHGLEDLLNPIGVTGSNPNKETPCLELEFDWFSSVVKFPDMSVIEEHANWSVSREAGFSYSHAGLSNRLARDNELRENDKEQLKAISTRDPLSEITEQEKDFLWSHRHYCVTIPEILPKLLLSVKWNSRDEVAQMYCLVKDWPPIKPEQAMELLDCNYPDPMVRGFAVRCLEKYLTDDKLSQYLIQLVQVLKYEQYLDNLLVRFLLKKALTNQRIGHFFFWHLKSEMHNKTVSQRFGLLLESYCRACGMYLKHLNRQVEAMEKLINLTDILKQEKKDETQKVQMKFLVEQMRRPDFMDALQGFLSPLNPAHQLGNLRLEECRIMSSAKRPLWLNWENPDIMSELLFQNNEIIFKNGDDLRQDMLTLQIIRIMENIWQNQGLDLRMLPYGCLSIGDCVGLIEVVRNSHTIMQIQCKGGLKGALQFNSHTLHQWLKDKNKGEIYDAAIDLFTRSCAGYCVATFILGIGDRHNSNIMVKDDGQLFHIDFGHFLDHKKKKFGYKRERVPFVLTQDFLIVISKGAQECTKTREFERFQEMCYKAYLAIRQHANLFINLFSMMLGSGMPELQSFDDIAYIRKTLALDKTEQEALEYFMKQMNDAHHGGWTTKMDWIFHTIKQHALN
# Sequence of Phosphatidylinositol 4,5-bisphosphate 3-kinase catalytic subunit gamma isoform (P48736 whole entry, canonical isoform): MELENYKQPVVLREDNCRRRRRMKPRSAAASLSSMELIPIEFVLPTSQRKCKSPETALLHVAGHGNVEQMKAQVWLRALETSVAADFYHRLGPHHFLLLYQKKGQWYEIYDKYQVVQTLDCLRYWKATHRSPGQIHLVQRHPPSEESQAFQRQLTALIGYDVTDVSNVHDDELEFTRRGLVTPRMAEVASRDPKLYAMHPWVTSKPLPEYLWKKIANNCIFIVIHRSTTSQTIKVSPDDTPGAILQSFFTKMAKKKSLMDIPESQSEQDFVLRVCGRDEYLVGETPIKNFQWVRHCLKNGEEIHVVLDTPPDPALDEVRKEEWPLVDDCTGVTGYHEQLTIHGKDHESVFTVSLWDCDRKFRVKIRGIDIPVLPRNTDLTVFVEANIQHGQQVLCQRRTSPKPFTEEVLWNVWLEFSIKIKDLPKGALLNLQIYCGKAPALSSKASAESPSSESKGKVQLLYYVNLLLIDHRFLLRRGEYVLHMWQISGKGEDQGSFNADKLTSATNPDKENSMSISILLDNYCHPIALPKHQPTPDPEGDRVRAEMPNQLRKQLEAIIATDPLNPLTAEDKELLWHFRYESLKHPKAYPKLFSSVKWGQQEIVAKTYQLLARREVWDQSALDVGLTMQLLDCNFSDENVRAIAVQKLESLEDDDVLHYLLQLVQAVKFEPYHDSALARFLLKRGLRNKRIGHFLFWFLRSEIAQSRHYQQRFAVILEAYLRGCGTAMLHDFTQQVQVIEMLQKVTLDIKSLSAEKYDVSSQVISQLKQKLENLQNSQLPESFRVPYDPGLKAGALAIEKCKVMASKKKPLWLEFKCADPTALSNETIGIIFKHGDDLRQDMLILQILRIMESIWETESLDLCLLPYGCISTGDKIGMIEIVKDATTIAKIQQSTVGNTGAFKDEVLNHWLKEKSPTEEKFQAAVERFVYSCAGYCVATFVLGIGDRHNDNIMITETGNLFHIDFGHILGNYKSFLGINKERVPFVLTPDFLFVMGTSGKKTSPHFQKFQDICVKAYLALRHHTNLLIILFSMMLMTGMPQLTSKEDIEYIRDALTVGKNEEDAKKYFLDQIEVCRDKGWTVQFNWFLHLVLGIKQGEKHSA
# Sequence of PI3-kinase p110-alpha/p85-alpha (P27986 whole entry, canonical isoform): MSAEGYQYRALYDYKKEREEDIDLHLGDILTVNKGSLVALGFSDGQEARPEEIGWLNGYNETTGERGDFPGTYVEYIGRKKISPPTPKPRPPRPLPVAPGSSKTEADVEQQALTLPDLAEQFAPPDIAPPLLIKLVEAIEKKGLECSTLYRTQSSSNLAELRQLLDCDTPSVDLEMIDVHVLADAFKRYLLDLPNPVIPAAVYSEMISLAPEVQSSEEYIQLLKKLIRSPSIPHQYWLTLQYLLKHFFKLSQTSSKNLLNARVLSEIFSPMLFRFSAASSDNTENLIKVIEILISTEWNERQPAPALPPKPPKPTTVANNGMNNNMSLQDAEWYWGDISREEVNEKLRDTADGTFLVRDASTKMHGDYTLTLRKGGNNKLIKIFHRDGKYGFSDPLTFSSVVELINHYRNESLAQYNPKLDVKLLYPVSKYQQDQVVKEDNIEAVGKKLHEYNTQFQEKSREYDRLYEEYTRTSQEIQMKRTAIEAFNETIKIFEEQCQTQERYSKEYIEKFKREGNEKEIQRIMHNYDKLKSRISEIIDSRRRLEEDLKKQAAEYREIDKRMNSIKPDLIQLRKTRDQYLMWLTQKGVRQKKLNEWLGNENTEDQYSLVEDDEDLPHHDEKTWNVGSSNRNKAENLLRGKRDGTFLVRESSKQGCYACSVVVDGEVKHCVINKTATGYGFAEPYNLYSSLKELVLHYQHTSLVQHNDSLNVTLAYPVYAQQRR
# Sequence of PI3-kinase p110-alpha/p85-alpha (P42336 whole entry, canonical isoform): as the sequence (P42336 whole entry, canonical isoform) above
# Sequence of Phosphatidylinositol 4,5-bisphosphate 3-kinase catalytic subunit beta isoform (P42338 whole entry, canonical isoform): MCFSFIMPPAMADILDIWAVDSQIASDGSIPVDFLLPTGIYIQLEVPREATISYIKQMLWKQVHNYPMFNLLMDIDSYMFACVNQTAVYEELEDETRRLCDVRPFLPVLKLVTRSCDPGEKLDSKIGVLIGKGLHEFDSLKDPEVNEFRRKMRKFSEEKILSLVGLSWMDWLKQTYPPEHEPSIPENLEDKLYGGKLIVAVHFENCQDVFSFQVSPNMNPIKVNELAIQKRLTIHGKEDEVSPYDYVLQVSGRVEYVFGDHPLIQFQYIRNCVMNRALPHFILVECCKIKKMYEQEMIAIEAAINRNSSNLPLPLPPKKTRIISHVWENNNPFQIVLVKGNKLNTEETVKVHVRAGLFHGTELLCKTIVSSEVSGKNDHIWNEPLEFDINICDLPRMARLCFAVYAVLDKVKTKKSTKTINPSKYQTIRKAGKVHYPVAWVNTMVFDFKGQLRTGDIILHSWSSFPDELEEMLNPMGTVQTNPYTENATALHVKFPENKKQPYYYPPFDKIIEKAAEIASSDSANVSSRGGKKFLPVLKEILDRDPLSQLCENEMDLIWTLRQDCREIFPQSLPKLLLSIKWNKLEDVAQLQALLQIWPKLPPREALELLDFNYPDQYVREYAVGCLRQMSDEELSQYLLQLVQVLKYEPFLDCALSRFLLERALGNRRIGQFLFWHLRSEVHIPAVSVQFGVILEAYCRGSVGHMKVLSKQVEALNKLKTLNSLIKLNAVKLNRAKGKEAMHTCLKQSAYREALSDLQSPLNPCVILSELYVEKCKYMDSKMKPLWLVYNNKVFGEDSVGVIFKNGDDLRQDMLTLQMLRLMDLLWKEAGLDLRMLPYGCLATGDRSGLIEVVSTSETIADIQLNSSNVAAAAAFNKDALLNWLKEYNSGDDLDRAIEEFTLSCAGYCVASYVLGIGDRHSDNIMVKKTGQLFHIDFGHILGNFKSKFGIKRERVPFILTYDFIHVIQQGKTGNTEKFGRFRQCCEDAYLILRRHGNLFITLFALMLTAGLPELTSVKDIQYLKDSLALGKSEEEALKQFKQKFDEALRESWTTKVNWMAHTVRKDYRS
compound,measurement,setting,value
NOCCOCCOCCOCCC(=O)N1CCN(c2cnc3ccc(-c4cnc(Cl)c(NS(=O)(=O)c5ccc(F)cc5)c4)cc3n2)CC1,IC50,[1],< 4.95 nM
same,IC50,[2],1.33 nM
same,IC50,[3],< 0.495 nM
same,IC50,[4],30.2 nM
CN(C)C(=O)C1CCC(Oc2nc(-c3ccc(N)nc3)nc(N3CCOCC3)n2)CC1 (configuration not stated),IC50,[5],< 1000 nM
same,IC50,[6],< 1000 nM
CC(C)(O)c1ccc(-c2cnc3c(n2)N(CC2CCOCC2)CC(=O)N3)cn1,IC50,[7],> 30000 nM
